Laboratory results as given in the supplement of paper PMC10883282.

What was measured:
Assay in all cases: relative viability vs DMSO control (72 h) (fraction); higher = more viable cells
A204 = tested on: A204
Procedure, shortened: (§1)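 A 5 µM positive control and 0.1% DMSO vehicle ran alongside sarcoma cell lines seeded in 384-well plates to reach 80–90% confluence. Serially diluted compound, 2.5 µl from source plates of 10 mM to 0.0002 mM, was added after 24 h, and the plates were held 72 h at 37 °C, 5% CO2. Relative viability was worked out from ATPLite readings as percent growth averaged over up to triplicate wells. The values were rescaled so that 1 is full and 0 is none.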

G401 = tested on: G401
Procedure, shortened: as §1

HS729 = tested on: HS729
Procedure, shortened: as §1

KHOS-240S = tested on: KHOS-240S
Procedure, shortened: as §1

MES-SA = tested on: MES-SA
Procedure, shortened: as §1

RD = tested on: RD
Procedure, shortened: as §1

SK-ES-1 = tested on: SK-ES-1
Procedure, shortened: as §1

SK-LMS-1 = tested on: SK-LMS-1
Procedure, shortened: as §1

SW1353 = tested on: SW1353
Procedure, shortened: as §1

SW872 = tested on: SW872
Procedure, shortened: as §1

SW982 = tested on: SW982
Procedure, shortened: as §1

VA-ES-BJ = tested on: VA-ES-BJ
Procedure, shortened: as §1

Cc1ccc(NC(=O)c2ccc(CN3CCN(C)CC3)cc2)cc1Nc1nccc(-c2cccnc2)n1 [Imatinib]
Conditions | relative viability
A204, 0.00017 µM | 1.01
A204, 0.00051 µM | 1.01
A204, 0.00152 µM | 0.993
A204, 0.00457 µM | 0.99
A204, 0.01372 µM | 0.95
A204, 0.04115 µM | 0.87
A204, 0.1235 µM | 0.738
A204, 0.3704 µM | 0.491
A204, 1.111 µM | 0.389
A204, 3.333 µM | 0.312
A204, 10 µM | 0.196
G401, 0.00017 µM | 0.963
G401, 0.00051 µM | 0.988
G401, 0.00152 µM | 0.958
G401, 0.00457 µM | 0.938
G401, 0.01372 µM | 0.956
G401, 0.04115 µM | 0.945
G401, 0.1235 µM | 0.951
G401, 0.3704 µM | 0.946
G401, 1.111 µM | 0.925
G401, 3.333 µM | 0.823
G401, 10 µM | 0.518
HS729, 0.00017 µM | 0.972
HS729, 0.00051 µM | 0.996
HS729, 0.00152 µM | 1.02
HS729, 0.00457 µM | 0.991
HS729, 0.01372 µM | 0.977
HS729, 0.04115 µM | 0.985
HS729, 0.1235 µM | 0.993
HS729, 0.3704 µM | 0.945
HS729, 1.111 µM | 0.917
HS729, 3.333 µM | 0.86
HS729, 10 µM | 0.522
KHOS-240S, 0.00017 µM | 0.98
KHOS-240S, 0.00051 µM | 0.977
KHOS-240S, 0.00152 µM | 0.9747
KHOS-240S, 0.00457 µM | 0.98
KHOS-240S, 0.01372 µM | 0.97
KHOS-240S, 0.04115 µM | 0.971
KHOS-240S, 0.1235 µM | 0.953
KHOS-240S, 0.3704 µM | 0.929
KHOS-240S, 1.111 µM | 0.895
KHOS-240S, 3.333 µM | 0.794
KHOS-240S, 10 µM | 0.542
MES-SA, 0.00017 µM | 0.966
MES-SA, 0.00051 µM | 0.988
MES-SA, 0.00152 µM | 0.992
MES-SA, 0.00457 µM | 0.9838
MES-SA, 0.01372 µM | 0.985
MES-SA, 0.04115 µM | 0.9942
MES-SA, 0.1235 µM | 0.997
MES-SA, 0.3704 µM | 1.02
MES-SA, 1.111 µM | 1.01
MES-SA, 3.333 µM | 0.905
MES-SA, 10 µM | 0.658
RD, 0.00017 µM | 0.964
RD, 0.00051 µM | 0.974
RD, 0.00152 µM | 0.952
RD, 0.00457 µM | 0.967
RD, 0.01372 µM | 0.976
RD, 0.04115 µM | 0.983
RD, 0.1235 µM | 0.95
RD, 0.3704 µM | 0.943
RD, 1.111 µM | 1.01
RD, 3.333 µM | 1
RD, 10 µM | 0.596
SK-ES-1, 0.00017 µM | 0.937
SK-ES-1, 0.00051 µM | 0.98
SK-ES-1, 0.00152 µM | 0.9529
SK-ES-1, 0.00457 µM | 0.9471
SK-ES-1, 0.01372 µM | 0.983
SK-ES-1, 0.04115 µM | 0.9614
SK-ES-1, 0.1235 µM | 0.977
SK-ES-1, 0.3704 µM | 0.97
SK-ES-1, 1.111 µM | 0.957
SK-ES-1, 3.333 µM | 0.841
SK-ES-1, 10 µM | 0.62
SK-LMS-1, 0.00017 µM | 1.02
SK-LMS-1, 0.00051 µM | 1.02
SK-LMS-1, 0.00152 µM | 1.04
SK-LMS-1, 0.00457 µM | 1.02
SK-LMS-1, 0.01372 µM | 1.06
SK-LMS-1, 0.04115 µM | 1.07
SK-LMS-1, 0.1235 µM | 1.05
SK-LMS-1, 0.3704 µM | 1.08
SK-LMS-1, 1.111 µM | 1.08
SK-LMS-1, 3.333 µM | 1.11
SK-LMS-1, 10 µM | 0.635
SW872, 0.00017 µM | 0.973
SW872, 0.00051 µM | 0.963
SW872, 0.00152 µM | 0.954
SW872, 0.00457 µM | 0.971
SW872, 0.01372 µM | 0.992
SW872, 0.04115 µM | 0.968
SW872, 0.1235 µM | 0.969
SW872, 0.3704 µM | 0.976
SW872, 1.111 µM | 0.982
SW872, 3.333 µM | 0.916
SW872, 10 µM | 0.627
SW982, 0.00017 µM | 0.985
SW982, 0.00051 µM | 0.972
SW982, 0.00152 µM | 0.973
SW982, 0.00457 µM | 0.975
SW982, 0.01372 µM | 0.97
SW982, 0.04115 µM | 0.98
SW982, 0.1235 µM | 0.963
SW982, 0.3704 µM | 0.979
SW982, 1.111 µM | 0.983
SW982, 3.333 µM | 0.96
SW982, 10 µM | 0.531
SW1353, 0.00017 µM | 1.01
SW1353, 0.00051 µM | 0.988
SW1353, 0.00152 µM | 0.986
SW1353, 0.00457 µM | 1.04
SW1353, 0.01372 µM | 1.01
SW1353, 0.04115 µM | 1.02
SW1353, 0.1235 µM | 0.991
SW1353, 0.3704 µM | 1
SW1353, 1.111 µM | 1.06
SW1353, 3.333 µM | 1.1
SW1353, 10 µM | 0.762
VA-ES-BJ, 0.00017 µM | 1.02
VA-ES-BJ, 0.00051 µM | 1.029
VA-ES-BJ, 0.00152 µM | 1.04
VA-ES-BJ, 0.00457 µM | 1.024
VA-ES-BJ, 0.01372 µM | 1.01
VA-ES-BJ, 0.04115 µM | 1.01
VA-ES-BJ, 0.1235 µM | 1.01
VA-ES-BJ, 0.3704 µM | 1.02
VA-ES-BJ, 1.111 µM | 1.02
VA-ES-BJ, 3.333 µM | 0.9831
VA-ES-BJ, 10 µM | 0.807
